# According to PMC10175095 (Therapeutic drug monitoring, 2023):
# Tests used:
# [1] = Freeze-thaw stability of unprocessed plasma samples; assay type: in vitro ADME; settings: human plasma, 3 freeze (-80°C)-thaw cycles
# [2] = Processed sample stability in final extract; assay type: physicochemical; settings: 4°C, autosampler, 25.1 h
# [3] = Pre-processed stability in human plasma; assay type: in vitro ADME; settings: 2.5 h
# CDK4/6 = settings: compared with abemaciclib; cited from earlier work
# [4] = major systemic metabolite; cited from earlier work
# [5] = Long-term stability of unprocessed plasma samples at −80°C; assay type: in vitro ADME; settings: human plasma
# [6] = Reinjection stability in final extract; assay type: physicochemical; settings: reinjected, 4°C, autosampler, 25.95 h
# [7] = RT (20–25°C), yellow light, nominal 15 ng/mL
# [8] = RT (20–25°C), yellow light, nominal 1500 ng/mL
structure (smiles),measurement,setting,value
Cc1nc2c(F)cc(-c3nc(Nc4ccc(CN5CCNCC5)cn4)ncc3F)cc2n1C(C)C [Abemaciclib-M2],Accuracy vs fresh QCs,[1]; nominal 15 ng/mL,98.2%
same,Accuracy vs. nominal concentration,[1]; nominal 15 ng/mL,100%
same,Mean measured concentration,[1]; nominal 15 ng/mL,15.0 ng/mL
same,Accuracy vs fresh QCs,[1]; nominal 1500 ng/mL,98.2%
same,Accuracy vs. nominal concentration,[1]; nominal 1500 ng/mL,99.6%
same,Mean measured concentration,[1]; nominal 1500 ng/mL,1493 ng/mL
same,Accuracy vs fresh QCs,[2]; nominal 15 ng/mL,100%
same,Accuracy vs. nominal concentration,[2]; nominal 15 ng/mL,110%
same,Mean measured concentration,[2]; nominal 15 ng/mL,16.5 ng/mL
same,Accuracy vs fresh QCs,[2]; nominal 1500 ng/mL,102%
same,Accuracy vs. nominal concentration,[2]; nominal 1500 ng/mL,102%
same,Mean measured concentration,[2]; nominal 1500 ng/mL,1537 ng/mL
same,Accuracy vs fresh QCs,"[3]; 37°C, dark, nominal 15 ng/mL",95.8%
same,Accuracy vs. nominal concentration,"[3]; 37°C, dark, nominal 15 ng/mL",101%
same,Mean measured concentration,"[3]; 37°C, dark, nominal 15 ng/mL",15.1 ng/mL
same,Accuracy vs fresh QCs,"[3]; 37°C, dark, nominal 1500 ng/mL",103%
same,Accuracy vs. nominal concentration,"[3]; 37°C, dark, nominal 1500 ng/mL",103%
same,Mean measured concentration,"[3]; 37°C, dark, nominal 1500 ng/mL",1540 ng/mL
same,Accuracy vs fresh QCs,[3]; [7],96.6%
same,Accuracy vs. nominal concentration,[3]; [7],102%
same,Mean measured concentration,[3]; [7],15.3 ng/mL
same,Accuracy vs fresh QCs,[3]; [8],104%
same,Accuracy vs. nominal concentration,[3]; [8],104%
same,Mean measured concentration,[3]; [8],1557 ng/mL
same,Pharmacological potency vs parent drug,CDK4/6,equipotent
same,Share of the total circulating analytes in plasma,[4],25%
same,Accuracy vs fresh QCs,"[5]; 3 months, nominal 15 ng/mL",107%
same,Accuracy vs. nominal concentration,"[5]; 3 months, nominal 15 ng/mL",97.6%
same,Mean measured concentration,"[5]; 3 months, nominal 15 ng/mL",14.6 ng/mL
same,Accuracy vs fresh QCs,"[5]; 3 months, nominal 150 ng/mL",104%
same,Accuracy vs. nominal concentration,"[5]; 3 months, nominal 150 ng/mL",100%
same,Mean measured concentration,"[5]; 3 months, nominal 150 ng/mL",150 ng/mL
same,Accuracy vs fresh QCs,"[5]; 3 months, nominal 1500 ng/mL",98.7%
same,Accuracy vs. nominal concentration,"[5]; 3 months, nominal 1500 ng/mL",100%
same,Mean measured concentration,"[5]; 3 months, nominal 1500 ng/mL",1503 ng/mL
same,Accuracy vs fresh QCs,"[5]; 7 months, nominal 15 ng/mL",102%
same,Accuracy vs. nominal concentration,"[5]; 7 months, nominal 15 ng/mL",96.9%
same,Mean measured concentration,"[5]; 7 months, nominal 15 ng/mL",14.5 ng/mL
same,Accuracy vs fresh QCs,"[5]; 7 months, nominal 150 ng/mL",92.4%
same,Accuracy vs. nominal concentration,"[5]; 7 months, nominal 150 ng/mL",102%
same,Mean measured concentration,"[5]; 7 months, nominal 150 ng/mL",154 ng/mL
same,Accuracy vs fresh QCs,"[5]; 7 months, nominal 1500 ng/mL",93.8%
same,Accuracy vs. nominal concentration,"[5]; 7 months, nominal 1500 ng/mL",93.6%
same,Mean measured concentration,"[5]; 7 months, nominal 1500 ng/mL",1403 ng/mL
same,Accuracy vs fresh QCs,"[5]; 12 months, nominal 15 ng/mL",111%
same,Accuracy vs. nominal concentration,"[5]; 12 months, nominal 15 ng/mL",101%
same,Mean measured concentration,"[5]; 12 months, nominal 15 ng/mL",15.1 ng/mL
same,Accuracy vs fresh QCs,"[5]; 12 months, nominal 150 ng/mL",95.6%
same,Accuracy vs. nominal concentration,"[5]; 12 months, nominal 150 ng/mL",110%
same,Mean measured concentration,"[5]; 12 months, nominal 150 ng/mL",166 ng/mL
same,Accuracy vs fresh QCs,"[5]; 12 months, nominal 1500 ng/mL",96.8%
same,Accuracy vs. nominal concentration,"[5]; 12 months, nominal 1500 ng/mL",104%
same,Mean measured concentration,"[5]; 12 months, nominal 1500 ng/mL",1567 ng/mL
same,Accuracy vs fresh QCs,[6]; nominal 15 ng/mL,103%
same,Accuracy vs. nominal concentration,[6]; nominal 15 ng/mL,113%
same,Mean measured concentration,[6]; nominal 15 ng/mL,16.9 ng/mL
same,Accuracy vs fresh QCs,[6]; nominal 150 ng/mL,96.5%
same,Accuracy vs. nominal concentration,[6]; nominal 150 ng/mL,104%
same,Mean measured concentration,[6]; nominal 150 ng/mL,155 ng/mL
same,Accuracy vs fresh QCs,[6]; nominal 1500 ng/mL,103%
same,Accuracy vs. nominal concentration,[6]; nominal 1500 ng/mL,104%
same,Mean measured concentration,[6]; nominal 1500 ng/mL,1557 ng/mL
